Assay results taken from US12239711B2, “Cereblon ligands and bifunctional compounds comprising the same” (Arvinas Operations, Inc., priority 2014, dated 2025).

Legend:
[1] = test system: estrogen responsive element/promoter/luciferase reporter gene; assay: ERE Luciferase Assay in T47D-KBluc cells; assay type: cell-based, human; conditions: Homo sapiens, 24 hours, luciferase activity, read-out: Target Engagement IC50
Protocol: 1. ERE Luciferase Assay for Compounds in Table 5.
T47D-KBluc cells (ATCC® #CRL_2865, T47D human breast cancer cells stably transfected with estrogen responsive element/promoter/luciferase reporter gene) were seeded into 96-well white opaque plates in RPMI growth medium supplemented with 10% fetal bovine serum (FBS) and allowed to adhere overnight in a 37° C. humidified incubator. The following day, cells were treated with PROTACs in a 12-point concentration curve (top final concentration of 300 nM with subsequent concentrations being 3-fold less with 2 pM being the lowest concentration in the assay). Each PROTAC was tested independently in two experiments on 96-well plates. After 24 hours, media was removed and lysis buffer was added to the wells. Following lysis, Bright-Glo™ Luciferase Assay Substrate (Promega, Madison WI) was added and the luciferase activity was measured using a Cytation 3 plate reader (BioTek™, Winooski, VT). Each compound was assayed in duplicate and the activity was calculated as IC50 using GraphPad Prism software (San Diego, CA).

[2] = target: T1, Estrogen Receptor-Alpha (ERα) (Homo sapiens, UniProt P03372); assay: Estrogen Receptor-Alpha (ERα) degradation assay in MCF-7 cells (western blot / In-Cell Western); assay type: cell-based; conditions: for Dmax: MCF7, read-out: ER Dmax; for DC50: read-out: ER DC50
T1 construct: endogenous in cells; host or cells: MCF-7 (MCF7) cells
T1 sequence (P03372 1-595): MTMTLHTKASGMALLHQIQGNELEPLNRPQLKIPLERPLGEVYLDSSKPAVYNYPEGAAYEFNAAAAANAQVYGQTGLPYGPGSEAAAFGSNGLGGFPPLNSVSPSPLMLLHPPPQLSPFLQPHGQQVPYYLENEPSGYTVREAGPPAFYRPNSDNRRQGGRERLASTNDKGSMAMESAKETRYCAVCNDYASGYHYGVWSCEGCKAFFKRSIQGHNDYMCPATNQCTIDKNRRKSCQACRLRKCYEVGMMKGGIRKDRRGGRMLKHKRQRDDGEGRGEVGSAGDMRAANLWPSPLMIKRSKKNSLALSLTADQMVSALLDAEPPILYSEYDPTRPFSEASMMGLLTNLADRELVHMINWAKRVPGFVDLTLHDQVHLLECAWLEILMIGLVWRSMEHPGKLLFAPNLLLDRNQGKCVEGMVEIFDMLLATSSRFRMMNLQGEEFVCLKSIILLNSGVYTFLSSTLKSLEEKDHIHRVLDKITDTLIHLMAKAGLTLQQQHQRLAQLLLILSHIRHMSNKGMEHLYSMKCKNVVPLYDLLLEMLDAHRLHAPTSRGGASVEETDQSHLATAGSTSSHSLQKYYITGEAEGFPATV
Protocol: 2. Estrogen Receptor-Alpha (ERα) Degradation Assay in MCF-7 Cells Using Western Blot Method for Table 5.
The exemplary novel ERα degraders were assessed for their activity in degrading ERα in MCF-7 cells via western blot. The assay was carried out in the presence of 10% FBS or high percentage of human or mouse serum. Protocols of the western blot assay are described below.
MCF7 cells were grown in DMEM/F12 with 10% FBS and seeded at 24,000 cells per well in 100 μl into 96-well clear tissue culture plates. The following day, the cells were treated with PROTACs in a […] concentration curve with 100 nM being the top concentration and serial dilutions to make the other concentrations (30 nM, 10 nM, 3 nM, 1 nM, and 0.3 nM). At all concentrations, 0.01% DMSO is the final concentration in the well. The following day, the plates are aspirated, washed with 50 μl of cold PBS. The cells are lysed with 50 μl/well 4° C. Cell Lysis Buffer (Catalog #9803; Cell Signaling Technology, Danvers, MA) (20 mM Tris-HCL (pH 7.5), 150 mM NaCl, 1 mM Na2EDTA, 1 mM EGTA, 1% Triton, 2.5 mM sodium pyrophosphate, 1 mM B-glycerophosphate, 1 mM sodium vanadate, 1 ug/ml leupeptin). Lysates were clarified at 16,000×g for 10 minutes, and 2 μg of protein was subjected to SDS-PAGE analysis and followed by immunoblotting according to standard protocols. The antibodies used were ERα (Cell Signaling Technologies Catalog #8644), and Tubulin (Sigma Catalog #T9026; St. Louis, MO). Detection reagents were Clarity Western ECL substrate (Bio-Rad Catalog #170-5060; Hercules, CA).
Alternatively, MCF7 cells were grown in DMEM/F12 with 10% FBS and seeded at 24,000 cells per well in 500 μl in 24-well clear tissue culture plates. The following day, the cells were treated with PROTACs in a 5-point concentration curve (100 nM, 33 nM, 11 nM, 3.7 nM, and 1.2 nM) in the presence of 0.01% DMSO. After 72 hours, the wells are aspirated and washed with 500 μl of PBS. The cells are lysed with 100 μl/well 4° C. Cell Lysis Buffer (Catalog #9803; Cell Signaling Technology, Danvers, MA) (20 mM Tris-HCL (pH 7.5), 150 mM NaCl, 1 mM Na2EDTA, 1 mM EGTA, 1% Triton, 2.5 mM sodium pyrophosphate, 1 mM B-glycerophosphate, 1 mM sodium vanadate, 1 ug/ml leupeptin). Lysates were clarified at 16,000×g for 10 minutes, and 2 μg of protein was subjected to SDS-PAGE analysis and followed by immunoblotting according to standard protocols. The antibodies used were ERα (Cell Signaling Technologies Catalog #8644), and Tubulin (Sigma Catalog #T9026; St. Louis, MO). Detection reagents were Clarity Western ECL substrate (Bio-Rad Catalog #170-5060; Hercules, CA).
3. Estrogen Receptor-Alpha (ERα) Degradation Assay Using In-Cell Western™ Assay for Table 5.
Degradation of ERα by claimed compounds were determined in MCF7 cells using an In-Cell Western™ assay. Briefly, MCF7 cells were plated in 96-well plates (2000 cells per well in 100 μl media) and incubated at 37° C. under an atmosphere of 5% CO2 in a humidified incubator overnight. One-hundred (100) μl of media containing test compound (at 2× concentration) was added to the appropriate wells to provide 11 serially decreasing concentrations (top final concentration, 1 μM then 3-fold less for the next 10 concentrations); a vehicle control (DMSO) was also added for each compound. For each experiment, all compounds were assayed in duplicate plates. Cells were then incubated for 3 or 5 days in the above-mentioned environment. The assay was terminated by removal of media, a single wash with ice-cold PBS and the addition of 50 μl paraformaldehyde (PFA: 4% in PBS). After 15 minutes in PFA at room temperature, the cells were permeabilized in Tris-phosphate-buffered saline with Tween (0.1%) (TBST) supplemented with Triton X-100 (0.5%) for 15 minutes. Cells were then blocked in BSA (TBST with BSA, 3%) for one hour. […]

Row | IC50 [1] [nM] | Dmax [2] [%] | DC50 [2] [nM] | Structure (SMILES)
1 | > 300 | 50 to 75 | ≥ 100 | COc1cc(N2CCN(CCC3CCN(c4ccc([C@H]5c6ccc(O)cc6CC[C@H]5c5ccccc5)cc4)CC3)CC2)cc2c1C(=O)N(C1CCC(=O)NC1=O)C2 (stereo partly drawn) [compound 9, 3-(5-{4-[2-(1-{4-[(1S,2R)-6-hydroxy-2-phenyl-1,2,3,4-tetrahydronaphthalen-1-yl]phenyl}piperidin-4-yl)ethyl]piperazin-1-yl}-7-methoxy-1-oxo-2,3-dihydro-1H-isoindol-2-yl)piperidine-2,6-dione]
2 | 102 | 50 to 75 | ≥ 100 | COCCOCCOc1c(CCN2CCCN(CCCCOc3ccc([C@H]4c5ccc(O)cc5CC[C@H]4c4ccccc4)cc3)CC2)ccc2c1CN([C@H]1CCC(=O)NC1=O)C2=O [compound 7, (3S)-3-(5-{2-[4-(4-{4-[(1S,2R)-6-hydroxy-2-phenyl-1,2,3,4-tetrahydronaphthalen-1-yl]phenoxy}butyl)-1,4-diazepan-1-yl]ethyl}-4-[2-(2-methoxyethoxy)ethoxy]-1-oxo-2,3-dihydro-1H-isoindol-2-yl)piperidine-2,6-dione]
3 | 0.49 | ≥ 75 | < 1 | COc1cc(N2CCN(CCCCCOc3ccc([C@@H]4c5ccc(O)cc5CC[C@@H]4c4ccccc4)cc3)CC2)cc2c1C(=O)N([C@H]1CCC(=O)NC1=O)C2 [compound 14, (3S)-3-[5-[4-[5-[4-[(1R,2S)-6-hydroxy-2-phenyl-tetralin-1-yl]phenoxy]pentyl]piperazin-1-yl]-7-methoxy-1-oxo-isoindolin-2-yl]piperidine-2,6-dione]

More lines, now with the values behind:

Row | Structure (SMILES) | IC50 [1] [nM] | Dmax [2] [%] | DC50 [2] [nM]
4 | COc1cc(N2CCN(CC3CCN(c4c(F)cc([C@@H]5c6ccc(O)cc6CC[C@@H]5c5ccccc5)cc4F)CC3)CC2)cc2c1C(=O)N(C1CCC(=O)NC1=O)C2 (stereo partly drawn) [compound 19, 3-(5-(4-((1-(2,6-difluoro-4-((1R,2S)-6-hydroxy-2-phenyl-1,2,3,4-tetrahydronaphthalen-1-yl)phenyl)piperidin-4-yl)methyl)piperazin-1-yl)-7-methoxy-1-oxoisoindolin-2-yl)piperidine-2,6-dione] | 4.5 | ≥ 75 | 1 to 10
5 | O=C1CCC(N2Cc3cc(N4CCN(CCCC(F)(F)COc5ccc([C@@H]6c7ccc(O)cc7CC[C@@H]6c6ccccc6)cc5)CC4)cc(OC(F)F)c3C2=O)C(=O)N1 (stereo partly drawn) [compound 21, 3-[5-[4-[4,4-difluoro-5-[4-[(1R,2S)-6-hydroxy-2-phenyl-tetralin-1-yl]phenoxy]pentyl]piperazin-1-yl]-7-(difluoromethoxy)-1-oxo-isoindolin-2-yl]piperidine-2,6-dione] | 2.5 | 50 to 75 | 1 to 10
6 | COCCOCCOc1c(CCN2CCCN(CCCCOc3ccc([C@@H]4c5ccc(O)cc5CC[C@@H]4c4ccccc4)cc3)CC2)ccc2c1CN([C@H]1CCC(=O)NC1=O)C2=O [compound 8, (3S)-3-[5-[2-[4-(4-[4-[(1R,2S)-6-hydroxy-2-phenyl-tetralin-1-yl]phenoxy]butyl]-1,4-diazepan-1-yl]ethyl]-4-[2-(2-methoxyethoxy)ethoxy]-1-oxo-isoindolin-2-yl]piperidine-2,6-dione] | 0.34 | 50 to 75 | 1 to 10
7 | COc1cc(N2CCN(CCCC(F)(F)COc3ccc([C@@H]4c5ccc(O)cc5CC[C@@H]4c4ccccc4)cc3)CC2)cc2c1C(=O)N(C1CCC(=O)NC1=O)C2 (stereo partly drawn) [compound 12, 3-[5-[4-[4,4-difluoro-5-[4-[(1R,2S)-6-hydroxy-2-phenyl-tetralin-1-yl]phenoxy]pentyl]piperazin-1-yl]-7-methoxy-1-oxo-isoindolin-2-yl]piperidine-2,6-dione] | 1 | ≥ 75 | < 1
8 | COc1cc(N2CCN(Cc3cccc(COc4ccc([C@@H]5c6ccc(O)cc6CC[C@@H]5c5ccccc5)cc4)n3)CC2)cc2c1C(=O)N(C1CCC(=O)NC1=O)C2 (stereo partly drawn) [compound 17, 3-[5-[4-[[6-[[4-[(1R,2S)-6-hydroxy-2-phenyl-tetralin-1-yl]phenoxy]methyl]-2-pyridyl]methyl]piperazin-1-yl]-7-methoxy-1-oxo-isoindolin-2-yl]piperidine-2,6-dione] | 1.5 | 50 to 75 | 1 to 10
